Experimental data as given in patent US20050118601A1, “Enhancer sequence of the 5-aminolevulinic acid synthase gene” (priority 2002, published 2005).
Like-named read-outs stand apart in the source and are kept apart here.

Key:
[1] = system: chicken ALAS1 drug responsive enhancer sequence (ADRES) elements; assay: Luciferase reporter gene assay of chicken ALAS1 5'-flanking fragments / ADRES elements in transfected LMH cells; type: cell-based; details: for ADRES activation in reporter assays: PIA 250 μM, glutethimide 500 μM, metyrapone 400 μM, dexamethasone 50 μM, RU-486 10 μM, rifampicin 100 μM, TCPOBOP 10 μM, compared with PB 600 μM
Protocol: The constructs were transfected together with a transfection-control construct expressing β-galactosidase into LMH cells. Cells were then treated with 600 μM PB for 16 h and luciferase assays were performed on the cell extracts. Relative luciferase levels are standardized against cells transfected with vector containing no insert and expressed as fold induction. Experiments were repeated at least three times and data from a representative experiment tested in triplicate are shown here. Error bars represent standard deviations;
Three major subclones were generated from the region upstream of the transcriptional start site, including a 3282 bp SmaI fragment and 5056 bp and 7973 bp EcoRI segments (FIG. 1A). The SmaI clone extends from −167 bp to −3449 bp, whereas the EcoRI subfragments span the regions from −2347 bp to −7402 bp and −7403 bp to −15376 bp, respectively. These subfragments were cloned into the pLucMCS modified luciferase vector containing an SV40 promoter as described in Materials and Methods. Drug inducibility was measured in transiently transfected LMH cells treated with 600 μM PB and compared with control values. […]
The modified enhancers were examined for response to 600 μM PB in luciferase reporter gene assays and the results are presented in FIG. 3.
Leghorn Male Hepatoma (LMH) cells were obtained from the American Type Culture Collection and cultivated in 10 cm dishes in Williams E medium supplemented with 10% FCS, 1% glutamine (2 mM) and 1% penicillin/streptomycin (50 IU/ml). Dishes coated with 0.1% gelatin were used for routine culture of LMH cells in order to facilitate proper seating of the cells onto the plastic plate surface.

mouse 369 bp DRES = assay: Luciferase reporter gene assay of mouse ALAS1 fragments / 369 bp DRES in LMH cells; type: cell-based; details: for induction of the 369 bp DRES, ranking of drugs: metyrapone 500 μM, glutethimide 500 μM, PIA 250 μM
Protocol: A 175 bp fragment (441 to 615) (Seq. Id. No. 3) was isolated by digesting the 2.6 kb fragment with SacI/XbaI. All fragments were subcloned in the pGL3LUCpro+MCS vector and the resulting constructs tested for inducibility in LMH reporter gene assay (FIG. 6). […] The 369 bp fragment was termed Drug responsive enhancer sequence DRES.
To compare the 369 bp DRES to other inducible fragments, a series of different drugs was used as inducers: clothrimazole (Clo, 10 μM), dexamethasone (Dex, 50 μM), glutethimide (GE, 500 μM), metyrapone (Met, 500 μM), phenobarbital (PB, 500 μM), PCN (10 μM), propylisopropylacetamide (PIA, 250 μM), rifampicin (Rif, 10 μM), RU486 (10 μM), TCPOBOP (10 μM).
Data shown is from two independent experiments.

mouse PXR = molecular target: T1, mouse PXR (Mus musculus, UniProt O54915)
T1 sequence (O54915 1-431): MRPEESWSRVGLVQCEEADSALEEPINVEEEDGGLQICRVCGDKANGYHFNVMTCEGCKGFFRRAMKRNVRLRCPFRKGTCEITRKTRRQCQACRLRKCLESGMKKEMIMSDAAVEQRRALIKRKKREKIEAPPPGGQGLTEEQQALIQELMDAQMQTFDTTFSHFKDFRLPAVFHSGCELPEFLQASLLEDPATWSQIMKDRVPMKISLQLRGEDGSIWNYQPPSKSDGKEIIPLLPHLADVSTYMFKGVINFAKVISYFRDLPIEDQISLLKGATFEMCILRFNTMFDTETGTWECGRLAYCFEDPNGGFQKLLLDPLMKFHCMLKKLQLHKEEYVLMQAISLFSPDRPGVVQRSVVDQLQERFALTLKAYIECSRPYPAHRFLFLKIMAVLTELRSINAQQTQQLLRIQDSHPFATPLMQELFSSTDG
Protocol: (§1) To test the effects of the mutations on transcriptional activation, transactivations in CV-1 cells with mouse PXR and mouse CAR and their respective inducers PCN and TCPOBOP, were performed (FIG. 14). The inducible DNA constructs were subcloned into the CAT5 reporter vector and tested for their ability to be transactivated by nuclear receptor transcription factors in CV-1 cells. Mouse PXR (A) and mouse CAR (B) coding regions cloned into the pSG5 expression vector were cotransfected along with a vector expressing pSV β-galactosidase as control. Cells were then treated for 16 h with either drugs (A, PCN; B, TCPOBOP) or vehicle control and cell extracts were analyzed for CAT expression normalized against β-galactosidase levels. Experiments were repeated at least three times and error bars represent standard deviations.

ALAS1 mRNA = ALAS1 mRNA quantification (Taqman real-time PCR) in LMH cells; type: cell-based, chicken
Protocol: We next wanted to compare ADRES-mediated ALAS1 induction levels from reporter gene assays with stimulation of transcription in a physiological system. […] In addition, the common CYP3A inducers dexamethasone (50 μM), metyrapone (400 μM), and 10 μM mifepristone (RU-486) were employed for comparison. We were also interested in the effects of […] 5-pregnen-3β-ol-20-one-16α-carbonitrile (PCN) and rifampicin (100 μM) due to their species-specific effects on PXR activation and CYP3A induction. Messenger RNA was reverse transcribed and levels of ALAS1 cDNA were quantified using the Taqman real-time PCR quantification system as described in Materials and Methods. […] This value was chosen to represent 100% induction, against which all other values are compared.
LMH cells were plated onto 12-well plates, expanded to 70-80% surface density and incubated in serum-free media for 24 h. Cells were then exposed to either drug or vehicle and RNA was isolated with Trizol reagent (Gibco BRL) according to the manufacturer protocol. One μg of total RNA was reverse transcribed with the Moloney murine leukemia virus reverse transcriptase kit (Roche Molecular Biochemicals). PCR was performed using the Taqman PCR core reagent kit (PE Applied Biosystems) and transcript levels quantitated with an ABI Prism 7700 sequence detection system (PE Applied Biosystems). Relative transcript levels were determined using the relative quantitation method measuring the ΔΔCt. The following primers and probes were used in these reactions. […] Transcript levels were measured in separate tubes and GAPDH values were used for normalization of ALAS1 values.

mouse CAR = molecular target: T2, mouse CAR (Mus musculus, UniProt O35627); assay: Transactivation of 369 bp ADRES by mouse CAR in CV-1 cells (CAT reporter); type: cell-based
T2 construct: expressed in transfected cells; host or cells: CV-1 cells, pSG5 expression vector
T2 sequence (O35627 1-358): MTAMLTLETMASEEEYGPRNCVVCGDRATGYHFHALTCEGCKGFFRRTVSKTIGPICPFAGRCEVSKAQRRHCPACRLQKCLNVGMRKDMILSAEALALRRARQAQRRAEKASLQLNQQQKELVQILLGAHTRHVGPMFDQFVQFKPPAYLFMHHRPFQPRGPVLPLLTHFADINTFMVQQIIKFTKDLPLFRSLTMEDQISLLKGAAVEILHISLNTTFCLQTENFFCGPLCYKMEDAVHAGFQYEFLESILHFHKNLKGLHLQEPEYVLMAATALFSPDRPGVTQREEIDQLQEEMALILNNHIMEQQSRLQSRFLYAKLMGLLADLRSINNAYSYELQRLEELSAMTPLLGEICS
Protocol: as §1

[2] = system: human ALAS1 gene fragments (hA795, hA174, hA8, hA240); assay: Luciferase reporter gene assay of human ALAS1 fragments in LMH cells; type: cell-based; details: 24 h, 400 μM PB or 250 μM PIA
Protocol: Fragments were cloned into the pGL3 luciferase reporter vector (Promega Corp) and tested for inducibility by the prototypical HALAS1 inducers phenobarbital (PB) and propylisopropylacetamid (PIA). Four hours after transfection of LMH cells with the constructs, cells were exposed to the drugs for 24 hours, after which luciferase activity was assayed. Results were normalized for transfection efficiency by assaying for activity of co-transfected β-galactosidase. Data shown is one representative experiment (FIG. 11).
We investigated in more detail the contribution of various response element half-sites to drug-induction mediated by this element. Within the hA174 element, an arrangement of three nuclear receptor response element half-sites was found, which lead: to the prediction of a DR-4 type, as well as a DR-5 type response element (of. FIG. 18A). By site-directed mutagenesis, we examined the involvement of each of these half-sites to drug induction. In the context of the 2xhA174 reporter construct, each single half-site was mutated in both copies of the hA174 element. The wild-type and mutant constructs were subsequently tested for reporter gene activation in LMH cells as described above. Cells were induced with 400 μM phenobarbital (PB) or 250 μM propylisopropylacetamid (PIA). As a control, vehicle alone (0.1% DMSO) was added to the cells. After 24 hours, luciferase activity was assayed and normalized against co-transfected β-galactosidase activity in order to compensate for transfection efficiency. […] From this, we conclude that the DR-4 element, consisting of the HS1 and HS2 half-sites, is essential for drug induction. The change in induction observed by mutagenesis of the HS3 half-site may indicate a modulatory role for the half-site alone or as a DR-5 in combination with HS2 in drug induction. Data shown are the mean+1SD of three independent experiments.
In order to define a core sequence retaining inducibility, the hA8 fragment (Seq. Id. No. 10), which carries PCR-introduced KpnI and XhoI restriction sites at its ends, was digested with SacI and NsiI. The resulting four fragments, a 100 bp KpnI/SacI fragment, a 374 bp SacI/NsiI fragment, a 240 bp NsiI/NsiI fragment, and a 231 bp NsiI/XhoI fragment, were cloned into a reporter gene vector and subsequently tested for drug induction in LMH cells. Of these fragments, only the 240 bp fragment (called hA240) (Seq. Id. No. 39) was able to convey transcriptional activation in response to drugs. Within the core hA240 fragment, we then mutated both half-sites of a predicted DR-4 element (cf. FIG. 18B) and observed the effect of this mutation on drug induction (240mutDR4). Alteration of the DR4 element half-sites abolished drug induction in LMH cell reporter gene assays. […]

## CCC1(c2ccccc2)CCC(=O)NC1=O (stereo not drawn) [glutethimide, Glutethimide]
[1]; LMH cells, 16 h
  ADRES activation in reporter assays: in excess of levels obtained from PB treatment
[1]; glutethimide 500 μM vs metyrapone 400 μM
  relative response of the 176 bp element: slightly more affinity for glutethimide than metyrapone
Mouse 369 bp DRES
  induction of the 369 bp DRES, ranking of drugs: strongest inducer

## CC(=O)[C@H]1[C@H](C#N)C[C@H]2[C@@H]3CC=C4C[C@@H](O)CC[C@]4(C)[C@H]3CC[C@@]21C [PCN, 5-pregnene-3β-ol-20-one-16α-carbonitrile]
[1]; LMH cells, 16 h
  ADRES activation in reporter assays: minor or no effects
Mouse PXR
  activation, DR4-1 double mutant: 1.9 fold
  activation, first DR4-2 single mutant (DR4-2/hs1): 5.8 fold
  activation, second DR4-2 single mutant (DR4-2/hs2): 5.3 fold
  drug response, both NR binding sites of 369 bp element altered: elimination of PXR-mediated drug response
  induction, 369 bp wild type: 5.6 fold
  induction, DR4-2 double mutant: 2.5 fold
  induction, first DR4-1 single mutant (DR4-1/hs1): 2.7 fold
  induction, second DR4-1 single mutant (DR4-1/hs2): 2.0 fold
ALAS1 mRNA
  effect on ALAS1 mRNA levels: minor or no effects

## C[C@@]12CCC[C@H]1[C@@H]1CC[C@H]3C[C@@H](O)CC[C@]3(C)[C@H]1CC2 [androstanol]
Mouse CAR
  basal expression exceeding androstanol-treated levels, DR4-2/hs1 single mutant: 2.5 fold
  basal expression exceeding androstanol-treated levels, DR4-2/hs2 single mutant: 1.9 fold

## CCC1(c2ccccc2)C(=O)NC(=O)NC1=O.[Na] [PB, 5-ethyl-5-phenyl-barbituric acid sodium salt]
[2]
  inducibility of 2xhA174, HS1 or HS2 half-site mutated: abolishment of inducibility
  induction of 2xhA174, HS3 half-site altered: merely reduces induction levels
[1]; 600 μM PB, LMH cells
  PB response of 167 bp ADRES diminished by DR4-3 mutation: 75%
  activation of 167 bp ADRES, DR4-2 mutant: 5.4 fold
  activation of 176 bp ADRES, DR4-1 mutant: 16 fold
  activation of 176 bp ADRES, DR5 mutant: 6.4 fold
  activation of wild type 167 bp ADRES: 60 fold
  activation of wild type 176 bp ADRES: 44 fold
  induction of 167 bp ADRES, DR4-3 mutant: 15 fold
  limitation of 176 bp ADRES activation by DR4-1 mutation: over 60%
  reduction of 176 bp ADRES activity by DR5 mutation: over 85%
  reduction of PB response of 167 bp ADRES by DR4-2 alteration: over 90%
[1]; LMH cells exposed to PB
  induction over control values, 176 bp and 167 bp elements: 25-60 fold
[1]; LMH cells, 600 μM PB
  transcriptional activation in response to drug treatment, 5056 bp and 3282 bp subfragments: virtually no transcriptional activation
[1]; LMH cells, 600 μM PB, 16 h
  increase in transcriptional activation relative to control values, 7973 bp subfragment: 28 fold
[1]; PB 600 μM, LMH cells
  activation of the 167 bp element compared to the 176 bp element: twice the activation
ALAS1 mRNA
  ALAS1 RNA levels relative to basal transcript levels: 16 fold
  effect on ALAS1 mRNA levels: strong inducer

## CC#C[C@]1(O)CC[C@H]2[C@@H]3CCC4=CC(=O)CCC4=C3[C@@H](c3ccc(N(C)C)cc3)C[C@@]21C [RU-486, Mifepristone]
[1]; LMH cells, 16 h
  ADRES activation in reporter assays: minor or no effects
ALAS1 mRNA; LMH cells, 16 h, PB 600 μM, dexamethasone 50 μM, RU-486 10 μM, rifampicin 100 μM, TCPOBOP 10 μM
  effect on ALAS1 mRNA levels: minor or no effects

## CC(C)(C(=O)c1cccnc1)c1cccnc1 [metyrapone, 2-methyl-1,2-di-3-pyridyl-propadone]
[1]; LMH cells, 16 h
  ADRES activation in reporter assays: in excess of levels obtained from PB treatment
[1]; metyrapone 400 μM vs glutethimide 500 μM
  relative response of the 167 bp element: stronger response to metyrapone than glutethimide
Mouse 369 bp DRES; Metyrapone 500 μM
  induction of mouse 175, 280, 321, 328 and 369 bp fragments: enhanced induction
Mouse 369 bp DRES
  induction of the 369 bp DRES, ranking of drugs: strongest inducer
